Source: patent publication US11000033B2, “Ketone or oxime compound, and herbicide” (NISSAN CHEMICAL CORPORATION, priority 2014, dated 2021)

Legend:
Format in all cases: in vivo
[1] = test system: Echinochloa oryzacola Vasing.; assay: Test Example 2: herbicidal activity, application during weed generation in submerged conditions (symbol A); settings: Table 23; application herbicide amount 320 g/ha; grade 0-5 by criteria of Test Example 1
Outline: (§1)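 Seeds sown in flooded alluvial soil (4 cm water) were grown in a 25-30° C greenhouse. At the one- to two-leaf stage, diluted emulsion of compound was applied to the water surface at a predetermined rate. Effect was scored 3 weeks later.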

Scirpus juncoides = assay: Test Example 2: herbicidal activity, application during weed generation in submerged conditions (symbol B); settings: Table 23; application herbicide amount 320 g/ha; grade 0-5 by criteria of Test Example 1
Outline: as §1

[2] = test system: directly sowed rice plant; assay: Test Example 3: effect on crop by foliage application, Wagner pot (symbol b); settings: application herbicide amount 320 g/ha
Outline: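 Wagner pot (1/10000 are), alluvial soil, submerged 0.1–0.5 cm; sown E. crus-galli var. crus-galli, L. chinensis, C. difformis, rice; greenhouse 25–30 °C.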

Avena fatua = assay: Test Example 4: herbicidal effect by soil treatment (symbol I); settings: application herbicide amount 320 g/ha
Outline: (§2)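 Seeds were sown in sterilized diluvial soil, covered with about 1.5 cm of soil, and the soil surface was sprayed with a water-diluted emulsion of the compound at a predetermined rate. Plants grew in a greenhouse at 25° C. to 30° C.; effects were scored visually 3 weeks after application.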

Lolium multiflorum Lam. = assay: Test Example 4: herbicidal effect by soil treatment (symbol K); settings: application herbicide amount 320 g/ha
Outline: as §2

Amaranthus retroflexus = assay: Test Example 4: herbicidal effect by soil treatment (symbol N); settings: application herbicide amount 320 g/ha
Outline: as §2

soybean = assay: Test Example 4: effect on crop by soil treatment (symbol d); settings: application herbicide amount 320 g/ha
Outline: (§3)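 Diluvial soil (sterilized) in boxes; seeds placed spot-wise alongside weed species; ~1.5 cm covering soil. Greenhouse, 25–30° C.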

rice = assay: Test Example 4: effect on crop by soil treatment (symbol b); settings: application herbicide amount 320 g/ha
Outline: as §3

wheat [3] = assay: Test Example 4: effect on crop by soil treatment (symbol e); settings: application herbicide amount 320 g/ha
Outline: as §3

rapeseed [4] = assay: Test Example 4: effect on crop by soil treatment (symbol g); settings: application herbicide amount 320 g/ha
Outline: as §3

Abutilon theophrasti = assay: Test Example 5: herbicidal effect by foliage application, plastic box (symbol M); settings: 320 g/ha, 3 weeks after application
Outline: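 Post-emergence spray; diluvial soil (sterilized), ~1.5 cm seed cover; greenhouse 25–30° C; 14-day-old plants; water-diluted emulsion at predetermined dose; visual score at 3 wk post-treatment.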

rice plant = assay: Test Example 5: effect on crop by foliage application, plastic box (symbol b); settings: 320 g/ha, 3 weeks after application
Outline: (§4)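 Crop and weed seeds sown in spots in sterilized diluvial soil in plastic boxes and covered with about 1.5 cm soil. Plants raised in a greenhouse at 25° C. to 30° C. for foliar application.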

wheat [5] = assay: Test Example 5: effect on crop by foliage application, plastic box (symbol e); settings: 320 g/ha, 3 weeks after application
Outline: as §4

beet = assay: Test Example 5: effect on crop by foliage application, plastic box (symbol f); settings: 320 g/ha, 3 weeks after application
Outline: as §4

rapeseed [6] = assay: Test Example 5: effect on crop by foliage application, plastic box (symbol g); settings: 320 g/ha, 3 weeks after application
Outline: as §4

Q: With `CON=C(C)CC1CC(OC(=O)COc2ccccc2)=C(c2c(C)cc(C)cc2OC)C1=O` (stereo not drawn) [6-091] as the molecule, how does the “Herbicidal effect grade, A: Echinochloa oryzacola Vasing.” value [1] read?
A: 5 (Herbicidal ratio of 90% or more (almost completely withered))

Q: What about the “Herbicidal effect grade, B: Scirpus juncoides” value (“Herbicidal effect grade, B” below) (Scirpus juncoides) of the same molecule?
A: 5 (Herbicidal ratio of 90% or more (almost completely withered))

Q: And the “effect on crop b (directly sowed rice plant), grade 0-5” value (“effect on crop b” below) [2]?
A: 5 (Herbicidal ratio of 90% or more (almost completely withered))

Q: What about the “Herbicidal effect grade, I: Avena fatua” value (Avena fatua) of the same molecule?
A: 5 (Herbicidal ratio of 90% or more (almost completely withered))

Q: What about the “Herbicidal effect grade, K: Lolium multiflorum Lam.” value (from here on “Herbicidal effect grade, K”) (Lolium multiflorum Lam.) of the same molecule?
A: 5 (Herbicidal ratio of 90% or more (almost completely withered))

Q: What about the “Herbicidal effect grade, N: Amaranthus retroflexus” value (shortened to “Herbicidal effect grade, N”) (Amaranthus retroflexus) of the same molecule?
A: 4 (Herbicidal ratio of 70% or higher and lower than 90%)

Q: What about the “Effect on crop grade, d: soybean” value (soybean) of the same molecule?
A: 1 (Herbicidal ratio of 5% or higher and lower than 20%)

Q: And the “Effect on crop grade, b: directly sowed rice plant” value (shortened to “Effect on crop grade, b”) (rice)?
A: 5 (Herbicidal ratio of 90% or more (almost completely withered))

Q: And the “Effect on crop grade, e: wheat” value (wheat [3])?
A: 5 (Herbicidal ratio of 90% or more (almost completely withered))

Q: And the “Effect on crop grade, g: rapeseed” value (rapeseed [4])?
A: 4 (Herbicidal ratio of 70% or higher and lower than 90%)

Q: What about the “M: Abutilon theophrasti, herbicidal effect (criteria of Test Example 1)” value (shortened to “M: Abutilon theophrasti”) (Abutilon theophrasti) of the same molecule?
A: 4 (Herbicidal ratio of 70% or higher and lower than 90%)

Q: And the “b: directly sowed rice plant, effect on crop (criteria of Test Example 1)” value (“b: directly sowed rice plant, effect” below) (rice plant)?
A: 5 (Herbicidal ratio of 90% or more (almost completely withered))

Q: And the “e: wheat, effect on crop (criteria of Test Example 1)” value (“e: wheat, effect on crop” below) (wheat [5])?
A: 5 (Herbicidal ratio of 90% or more (almost completely withered))

Q: And the “f: beet, effect on crop (criteria of Test Example 1)” value (“f: beet, effect on crop” below) (beet)?
A: 3 (Herbicidal ratio of 40% or higher and lower than 70%)

Q: And the “g: rapeseed, effect on crop (criteria of Test Example 1)” value (shortened to “g: rapeseed, effect on crop”) (rapeseed [6])?
A: 5 (Herbicidal ratio of 90% or more (almost completely withered))

Q: How did the “Herbicidal effect grade, A: Echinochloa oryzacola Vasing.” value [1] turn out when `CON=C(C)CC1CC(OC(=O)COc2ccccc2)=C(c2c(C)cc(-c3ccc(Cl)cc3Cl)cc2C)C1=O` (stereo not drawn) [6-092] was run?
A: 1 (Herbicidal ratio of 5% or higher and lower than 20%)

Q: What about the “Herbicidal effect grade, B” value (Scirpus juncoides) of the same molecule?
A: 0 (Herbicidal ratio of 5% or lower (almost no effect))

Q: And the “effect on crop b” value [2]?
A: 5 (Herbicidal ratio of 90% or more (almost completely withered))

Q: What about the “Herbicidal effect grade, I: Avena fatua” value (Avena fatua) of the same molecule?
A: 3 (Herbicidal ratio of 40% or higher and lower than 70%)

Q: What about the “Herbicidal effect grade, K” value (Lolium multiflorum Lam.) of the same molecule?
A: 5 (Herbicidal ratio of 90% or more (almost completely withered))

Q: And the “Herbicidal effect grade, N” value (Amaranthus retroflexus)?
A: 0 (Herbicidal ratio of 5% or lower (almost no effect))

Q: And the “Effect on crop grade, d: soybean” value (soybean)?
A: 0 (Herbicidal ratio of 5% or lower (almost no effect))

Q: What about the “Effect on crop grade, b” value (rice) of the same molecule?
A: 4 (Herbicidal ratio of 70% or higher and lower than 90%)

Q: And the “Effect on crop grade, e: wheat” value (wheat [3])?
A: 0 (Herbicidal ratio of 5% or lower (almost no effect))

Q: And the “Effect on crop grade, g: rapeseed” value (rapeseed [4])?
A: 0 (Herbicidal ratio of 5% or lower (almost no effect))

Q: And the “M: Abutilon theophrasti” value (Abutilon theophrasti)?
A: 0 (Herbicidal ratio of 5% or lower (almost no effect))

Q: And the “b: directly sowed rice plant, effect” value (rice plant)?
A: 4 (Herbicidal ratio of 70% or higher and lower than 90%)

Q: What about the “e: wheat, effect on crop” value (wheat [5]) of the same molecule?
A: 0 (Herbicidal ratio of 5% or lower (almost no effect))

Q: What about the “f: beet, effect on crop” value (beet) of the same molecule?
A: 0 (Herbicidal ratio of 5% or lower (almost no effect))

Q: What about the “g: rapeseed, effect on crop” value (rapeseed [6]) of the same molecule?
A: 4 (Herbicidal ratio of 70% or higher and lower than 90%)

Q: Which “Herbicidal effect grade, A: Echinochloa oryzacola Vasing.” value [1] does the source give for `CON=C(C)CC1CC(OC(=O)N2CCOCC2)=C(c2c(C)cc(-c3ccc(F)c(Cl)c3)cc2C)C1=O` (stereo not drawn) [6-093] here?
A: 5 (Herbicidal ratio of 90% or more (almost completely withered))

Q: And the “Herbicidal effect grade, B” value (Scirpus juncoides)?
A: 3 (Herbicidal ratio of 40% or higher and lower than 70%)

Q: And the “effect on crop b” value [2]?
A: 5 (Herbicidal ratio of 90% or more (almost completely withered))

Q: What about the “Herbicidal effect grade, I: Avena fatua” value (Avena fatua) of the same molecule?
A: 0 (Herbicidal ratio of 5% or lower (almost no effect))

Q: What about the “Herbicidal effect grade, K” value (Lolium multiflorum Lam.) of the same molecule?
A: 1 (Herbicidal ratio of 5% or higher and lower than 20%)

Q: And the “Herbicidal effect grade, N” value (Amaranthus retroflexus)?
A: 0 (Herbicidal ratio of 5% or lower (almost no effect))

Q: And the “Effect on crop grade, d: soybean” value (soybean)?
A: 0 (Herbicidal ratio of 5% or lower (almost no effect))

Q: And the “Effect on crop grade, b” value (rice)?
A: 1 (Herbicidal ratio of 5% or higher and lower than 20%)

Q: And the “Effect on crop grade, e: wheat” value (wheat [3])?
A: 0 (Herbicidal ratio of 5% or lower (almost no effect))

Q: And the “Effect on crop grade, g: rapeseed” value (rapeseed [4])?
A: 0 (Herbicidal ratio of 5% or lower (almost no effect))

Q: And the “M: Abutilon theophrasti” value (Abutilon theophrasti)?
A: 3 (Herbicidal ratio of 40% or higher and lower than 70%)

Q: What about the “b: directly sowed rice plant, effect” value (rice plant) of the same molecule?
A: 4 (Herbicidal ratio of 70% or higher and lower than 90%)

Q: What about the “e: wheat, effect on crop” value (wheat [5]) of the same molecule?
A: 5 (Herbicidal ratio of 90% or more (almost completely withered))

Q: What about the “f: beet, effect on crop” value (beet) of the same molecule?
A: 3 (Herbicidal ratio of 40% or higher and lower than 70%)

Q: What about the “g: rapeseed, effect on crop” value (rapeseed [6]) of the same molecule?
A: 4 (Herbicidal ratio of 70% or higher and lower than 90%)

Q: Which “Herbicidal effect grade, A: Echinochloa oryzacola Vasing.” value [1] does the source give for `CON=C(C)CC1CC(OS(=O)(=O)N(C)C)=C(c2c(C)cc(C)cc2OC)C1=O` (stereo not drawn) [6-095] here?
A: 5 (Herbicidal ratio of 90% or more (almost completely withered))

Q: And the “Herbicidal effect grade, B” value (Scirpus juncoides)?
A: 3 (Herbicidal ratio of 40% or higher and lower than 70%)

Q: And the “effect on crop b” value [2]?
A: 5 (Herbicidal ratio of 90% or more (almost completely withered))

Q: And the “Herbicidal effect grade, I: Avena fatua” value (Avena fatua)?
A: 3 (Herbicidal ratio of 40% or higher and lower than 70%)

Q: What about the “Herbicidal effect grade, K” value (Lolium multiflorum Lam.) of the same molecule?
A: 5 (Herbicidal ratio of 90% or more (almost completely withered))

Q: And the “Herbicidal effect grade, N” value (Amaranthus retroflexus)?
A: 1 (Herbicidal ratio of 5% or higher and lower than 20%)

Q: And the “Effect on crop grade, d: soybean” value (soybean)?
A: 0 (Herbicidal ratio of 5% or lower (almost no effect))

Q: What about the “Effect on crop grade, b” value (rice) of the same molecule?
A: 5 (Herbicidal ratio of 90% or more (almost completely withered))

Q: And the “Effect on crop grade, e: wheat” value (wheat [3])?
A: 2 (Herbicidal ratio of 20% or higher and lower than 40%)

Q: And the “Effect on crop grade, g: rapeseed” value (rapeseed [4])?
A: 4 (Herbicidal ratio of 70% or higher and lower than 90%)

Q: What about the “M: Abutilon theophrasti” value (Abutilon theophrasti) of the same molecule?
A: 4 (Herbicidal ratio of 70% or higher and lower than 90%)

Q: What about the “b: directly sowed rice plant, effect” value (rice plant) of the same molecule?
A: 5 (Herbicidal ratio of 90% or more (almost completely withered))

Q: And the “e: wheat, effect on crop” value (wheat [5])?
A: 4 (Herbicidal ratio of 70% or higher and lower than 90%)

Q: What about the “f: beet, effect on crop” value (beet) of the same molecule?
A: 0 (Herbicidal ratio of 5% or lower (almost no effect))

Q: What about the “g: rapeseed, effect on crop” value (rapeseed [6]) of the same molecule?
A: 4 (Herbicidal ratio of 70% or higher and lower than 90%)

Q: What does the source list for `CON=C(C)CC1CC(O)=C(c2c(C)cc(-c3ccsc3)cc2C)C1=O` (stereo not drawn) [6-106]?
A: Herbicidal effect grade, A: Echinochloa oryzacola Vasing. [1]: 5 (Herbicidal ratio of 90% or more (almost completely withered)); Herbicidal effect grade, B: Scirpus juncoides (Scirpus juncoides): 5 (Herbicidal ratio of 90% or more (almost completely withered)); effect on crop b (directly sowed rice plant), grade 0-5 [2]: 5 (Herbicidal ratio of 90% or more (almost completely withered)); Herbicidal effect grade, I: Avena fatua (Avena fatua): 3 (Herbicidal ratio of 40% or higher and lower than 70%); Herbicidal effect grade, K: Lolium multiflorum Lam. (Lolium multiflorum Lam.): 3 (Herbicidal ratio of 40% or higher and lower than 70%); Herbicidal effect grade, N: Amaranthus retroflexus (Amaranthus retroflexus): 0 (Herbicidal ratio of 5% or lower (almost no effect)); Effect on crop grade, d: soybean (soybean): 0 (Herbicidal ratio of 5% or lower (almost no effect)); Effect on crop grade, b: directly sowed rice plant (rice): 1 (Herbicidal ratio of 5% or higher and lower than 20%); Effect on crop grade, e: wheat (wheat [3]): 0 (Herbicidal ratio of 5% or lower (almost no effect)); Effect on crop grade, g: rapeseed (rapeseed [4]): 3 (Herbicidal ratio of 40% or higher and lower than 70%); M: Abutilon theophrasti, herbicidal effect (criteria of Test Example 1) (Abutilon theophrasti): 0 (Herbicidal ratio of 5% or lower (almost no effect)); b: directly sowed rice plant, effect on crop (criteria of Test Example 1) (rice plant): 3 (Herbicidal ratio of 40% or higher and lower than 70%); e: wheat, effect on crop (criteria of Test Example 1) (wheat [5]): 3 (Herbicidal ratio of 40% or higher and lower than 70%); f: beet, effect on crop (criteria of Test Example 1) (beet): 0 (Herbicidal ratio of 5% or lower (almost no effect)); g: rapeseed, effect on crop (criteria of Test Example 1) (rapeseed [6]): 5 (Herbicidal ratio of 90% or more (almost completely withered))
